Cl.O=C(O)c1cn(-c2ccc(F)cc2)c2cc(N3CCNCC3)c(F)cc2c1=O
solubility (mole fraction)
Settings	in DMF	in acetonitrile	in ethanol	in ethyl acetate	in isopropanol	in methanol	in n-butanol	in n-hexane
278.15 K	0.00136	0.00011	0.00019	0.0038	0.00047	0.00181	0.00148	0.00029
283.15 K	0.00148	0.00012	0.00022	0.00422	0.00059	0.00194	0.00162	0.00033
288.15 K	0.00164	0.00014	0.00025	0.00476	0.00072	0.00211	0.00179	0.00038
293.15 K	0.00183	0.00017	0.00029	0.00539	0.00083	0.00234	0.00202	0.00044
298.15 K	0.00205	0.0002	0.00033	0.00627	0.00098	0.00262	0.00224	0.00053
303.15 K	0.00232	0.00024	0.00037	0.00719	0.0011	0.00294	0.0025	0.00063
308.15 K	0.00259	0.00028	0.00043	0.00831	0.00123	0.0033	0.00281	0.00075
313.15 K	0.0029	0.00034	0.00049	0.00961	0.00134	0.00369	0.00312	0.00089
318.15 K	0.00324	0.0004	0.00056	0.0109	0.00147	0.00411	0.00344	0.00105
323.15 K	0.00359	0.00047	0.00064	0.0126	0.00161	0.00457	0.00379	0.0012
328.15 K	0.00397	0.00054	0.00072	0.0144	0.00172	0.00502	0.00419	0.00137
333.15 K	0.0044	0.00062	0.0008	0.0163	0.00185	0.00549	0.00463	0.00155

Reference: BigSolDB 2.1
